Some test systems named below: CAKI-1 renal; NCI-H522 lung; K-562 leukemia; A549 NSCLC; PC-3 prostate; HL-60(TB) leukemia; SK-MEL-2 melanoma; M14 melanoma; T-47D breast; SF-539 CNS; HT29 colon; SF-295 CNS; HOP-62 NSCLC; HCT-15 colon; NCI/ADR-RES ovarian; BT-549 breast; NCI-H23 lung; KM12 colon; HCC-2998 colon.
Common to all, as to experiment: NCI-60 cell line screen, 48 h

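In this assay, cells in 96-well plates receive the compound at five concentrations for 48 hours. Endpoints are linearly interpolated between the surrounding concentrations. Definition used: TGI = concentration required for complete inhibition of growth.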 Where a SMILES comes first, the peptide text is derived from it. [ ]: non-standard residue; d: D form. The star is where a group is joined. Bn2Val = CC(C)[C@@H](C(=O)*)N(Cc1ccccc1)Cc1ccccc1; NH(3,4-diMeO-benzyl) = COc1ccc(CN*)cc1OC; NMeV = CN[C@H](C(=O)O)C(C)C

`COc1ccc(N=CN(C)C)c(C)c1`: the TGI in the experiment with CAKI-1 renal was > 100 µM; with NCI-H522 lung, 8.08 µM; in the experiment with K-562 leukemia it was > 100 µM; in the experiment with A549 NSCLC it was > 100 µM; with PC-3 prostate, 31 µM; with HL-60(TB) leukemia, 4.1 µM. Moreover, the TGI worked out at 30.4 µM with SK-MEL-2 melanoma; 55.5 µM with M14 melanoma; 68.4 µM in the experiment on T-47D breast; 82.1 µM with SF-539 CNS; 44.6 µM with HT29 colon; 51.6 µM in the experiment with SF-295 CNS. For the same compound, the TGI is 45.4 µM in the experiment with HOP-62 NSCLC; > 100 µM in the experiment with HCT-15 colon; > 100 µM in the experiment on NCI/ADR-RES ovarian; 58.2 µM with BT-549 breast; 7.23 µM in the experiment on NCI-H23 lung.
`O=C(OCc1ccccc1)N1CCCc2c(n(S(=O)(=O)c3ccccc3)c3ccccc23)C1`: the TGI in the experiment on CAKI-1 renal, in the experiment with NCI-H522 lung, in the experiment with K-562 leukemia, with A549 NSCLC, in the experiment on PC-3 prostate and with HL-60(TB) leukemia was > 100 µM in each case. For the same compound, the TGI in the experiment with SK-MEL-2 melanoma, with KM12 colon, with M14 melanoma, with T-47D breast, in the experiment on SF-539 CNS and with HT29 colon was > 100 µM in each case. The TGI in the experiment on SF-295 CNS, with HOP-62 NSCLC, in the experiment with HCT-15 colon, with NCI/ADR-RES ovarian, in the experiment with BT-549 breast and in the experiment on NCI-H23 lung was > 100 µM throughout.
Take `C=CCC1C(=O)Nc2cccc3ncn(c23)C1=O` (stereo unspecified): the TGI in the experiment on CAKI-1 renal, in the experiment with K-562 leukemia, in the experiment with A549 NSCLC, with PC-3 prostate, in the experiment on HL-60(TB) leukemia and in the experiment on SK-MEL-2 melanoma was > 100 µM each time. In addition, the TGI with KM12 colon, in the experiment on M14 melanoma, with T-47D breast, in the experiment with SF-539 CNS, in the experiment on HT29 colon and in the experiment on SF-295 CNS was > 100 µM throughout. In addition, the TGI in the experiment with HOP-62 NSCLC, in the experiment with HCT-15 colon, with NCI/ADR-RES ovarian, with BT-549 breast and in the experiment with NCI-H23 lung was > 100 µM throughout.
Take `NC(=O)OCc1c(-c2ccccc2)nn(-c2ccccc2)c1COC(N)=O`: the TGI with CAKI-1 renal, in the experiment with NCI-H522 lung, in the experiment with A549 NSCLC, in the experiment on PC-3 prostate, in the experiment with SK-MEL-2 melanoma and with KM12 colon was > 100 µM throughout. Besides, the TGI with M14 melanoma, with T-47D breast, in the experiment with SF-539 CNS, in the experiment with HT29 colon, in the experiment on SF-295 CNS and with HCT-15 colon was > 100 µM in each case. Further, the TGI with NCI/ADR-RES ovarian, in the experiment on BT-549 breast, in the experiment with HCC-2998 colon and in the experiment on NCI-H23 lung was > 100 µM in each case.
Turning to `CCOP(=O)(OCC)C(Nc1ccc(C(=O)O)cc1)c1ccc(C(Nc2ccc(C(=O)O)cc2)P(=O)(OCC)OCC)cc1` (stereo unspecified), the TGI in the experiment on CAKI-1 renal, in the experiment with NCI-H522 lung, in the experiment with K-562 leukemia, in the experiment on A549 NSCLC, in the experiment on PC-3 prostate and with SK-MEL-2 melanoma was > 100 µM throughout. Besides, the TGI with KM12 colon, with M14 melanoma, in the experiment with T-47D breast, with HT29 colon, with SF-295 CNS and with HOP-62 NSCLC was > 100 µM throughout. For the same compound, the TGI with HCT-15 colon, in the experiment with NCI/ADR-RES ovarian, with BT-549 breast, in the experiment on HCC-2998 colon and with NCI-H23 lung was > 100 µM each time.
With `Cc1ccc(C2SCC(=O)N2NC(=O)c2ccncc2)s1` (stereo unspecified), the TGI in the experiment on CAKI-1 renal, with NCI-H522 lung, in the experiment with K-562 leukemia, in the experiment with A549 NSCLC, with PC-3 prostate and in the experiment with SK-MEL-2 melanoma was > 100 µM throughout. Also, the TGI in the experiment with KM12 colon, in the experiment with M14 melanoma, in the experiment with T-47D breast, with SF-539 CNS, with HT29 colon and in the experiment with SF-295 CNS was > 100 µM in each case. Also, the TGI in the experiment with HOP-62 NSCLC, in the experiment with HCT-15 colon, in the experiment with NCI/ADR-RES ovarian, in the experiment on BT-549 breast, in the experiment with HCC-2998 colon and with NCI-H23 lung was > 100 µM in each case.
For the compound `COc1ccc(CNC(=O)[C@@H]2CCCN2C(=O)[C@@H]2CCCN2C(=O)[C@H](C(C)C)N(C)C(=O)[C@@H](NC(=O)[C@H](C(C)C)N(Cc2ccccc2)Cc2ccccc2)C(C)C)cc1OC` (Bn2Val-V[NMeV]PP-{NH(3,4-diMeO-benzyl)}), the TGI was 38.1 µM with CAKI-1 renal; 20.6 µM in the experiment on NCI-H522 lung; > 100 µM with K-562 leukemia; 38.4 µM in the experiment on A549 NSCLC; 30.8 µM with PC-3 prostate; 6.17 µM in the experiment on HL-60(TB) leukemia. Moreover, the TGI with SK-MEL-2 melanoma was determined as 34.5 µM; in the experiment on KM12 colon, 51.5 µM; in the experiment on M14 melanoma, 29.4 µM; in the experiment on T-47D breast, 48.3 µM; with SF-539 CNS, 34 µM; with HT29 colon, 20.7 µM. The TGI turned out to be 29.9 µM in the experiment on SF-295 CNS; 32.3 µM in the experiment with HOP-62 NSCLC; 31.4 µM in the experiment with HCT-15 colon; 48.2 µM with NCI/ADR-RES ovarian; 34.5 µM with BT-549 breast; 38.6 µM in the experiment on NCI-H23 lung.

These data come from PubChem BioAssay (NCI).
